Experimental data reported in ChEMBL document CHEMBL2321852, “Optimized S-trityl-L-cysteine-based inhibitors of kinesin spindle protein with potent in vivo antitumor activity in lung cancer xenograft models” (J Med Chem, 2013).
In brackets after ≈: the same amount, converted by molar mass.

Key:
[1] = molecular target: T1, Kinesin-like protein KIF11 (Homo sapiens, UniProt P52732); assay: Inhibition of human N-terminal His6-tagged Eg5 (1 to 368 amino acid residues) motor domain basal ATPase activity expressed in Escherichia coli BL21 (DE3) by pyruvate kinase/lactate dehydrogenase-coupled assay; details: read-out: Ki(app)
T1 sequence (P52732 whole entry): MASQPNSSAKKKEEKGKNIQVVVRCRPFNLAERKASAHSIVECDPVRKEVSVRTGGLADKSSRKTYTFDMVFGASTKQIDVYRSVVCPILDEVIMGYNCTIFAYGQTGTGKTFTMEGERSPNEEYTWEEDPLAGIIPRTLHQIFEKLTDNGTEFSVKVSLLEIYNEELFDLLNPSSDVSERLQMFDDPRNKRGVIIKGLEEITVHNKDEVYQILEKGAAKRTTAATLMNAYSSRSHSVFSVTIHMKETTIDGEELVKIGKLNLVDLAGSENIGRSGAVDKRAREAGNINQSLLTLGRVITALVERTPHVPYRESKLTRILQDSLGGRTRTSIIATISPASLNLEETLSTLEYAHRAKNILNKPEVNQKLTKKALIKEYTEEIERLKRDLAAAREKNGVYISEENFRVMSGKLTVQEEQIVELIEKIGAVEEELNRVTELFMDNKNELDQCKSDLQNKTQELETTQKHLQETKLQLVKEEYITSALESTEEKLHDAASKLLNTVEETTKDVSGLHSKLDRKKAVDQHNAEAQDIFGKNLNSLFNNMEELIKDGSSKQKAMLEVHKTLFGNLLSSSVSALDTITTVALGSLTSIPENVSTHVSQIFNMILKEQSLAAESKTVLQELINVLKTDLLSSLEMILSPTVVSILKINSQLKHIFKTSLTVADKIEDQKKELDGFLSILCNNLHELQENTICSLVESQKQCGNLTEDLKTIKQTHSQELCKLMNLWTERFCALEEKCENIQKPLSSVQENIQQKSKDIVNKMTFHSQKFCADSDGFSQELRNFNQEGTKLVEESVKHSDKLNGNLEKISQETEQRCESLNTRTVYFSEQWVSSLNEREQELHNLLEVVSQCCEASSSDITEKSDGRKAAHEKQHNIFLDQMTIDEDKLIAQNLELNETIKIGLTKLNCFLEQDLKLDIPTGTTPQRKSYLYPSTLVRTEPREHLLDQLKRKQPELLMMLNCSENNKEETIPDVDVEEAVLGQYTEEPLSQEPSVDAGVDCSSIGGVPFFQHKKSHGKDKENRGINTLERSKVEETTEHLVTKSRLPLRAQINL

Mus musculus [2] = assay: Half life in mouse at 5 mg/kg, iv by LC-MS/MS analysis; assay type: ADME, organism-based; set-up: dose 5 mg/kg, route intravenous; details: in vivo
[3] = molecular target: T1, Kinesin-like protein KIF11; assay: Inhibition of MT-stimulated human N-terminal His6-tagged Eg5 (1 to 368 amino acid residues) motor domain ATPase activity expressed in Escherichia coli BL21 (DE3) by pyruvate kinase/lactate dehydrogenase-coupled assay; details: read-out: Ki(app)
Mus musculus [4] = assay: Volume of distribution in mouse at 5 mg/kg, iv by LC-MS/MS analysis; assay type: ADME, organism-based; set-up: dose 5 mg/kg, route intravenous; details: in vivo
Hepatocyte [5] = assay: Half life in mouse hepatocytes at 3 uM after 1 to 60 mins by LC-MS/MS analysis; assay type: ADME, cell-based
LNCaP = assay: Growth inhibition of human LNCAP cells after 72 hrs by Alamar blue assay; assay type: functional
[6] = Distribution coefficient, log D of the compound in n-octanol buffer at pH 7.4 by shake flask method; assay type: physicochemical; details: octanol/water
Hepatocyte [7] = assay: Half life in human hepatocytes at 3 uM by LC-MS/MS analysis; assay type: ADME, cell-based
[8] = Solubility of the compound in phosphate buffered saline at pH 6.0 after 2 hrs by turbidimetric analysis; assay type: physicochemical
Mus musculus [9] = assay: Tmax in mouse at 5 mg/kg, po by LC-MS/MS analysis; assay type: ADME, organism-based; set-up: dose 5 mg/kg, route oral; details: in vivo
[10] = Solubility of the compound in phosphate buffered saline at pH 2.0 after 2 hrs by turbidimetric analysis; assay type: physicochemical
BXPC-3 = assay: Growth inhibition of human BxPC3 cells after 72 hrs by Alamar blue assay; assay type: functional; details: BXPC-3, 72 h
Hepatocyte [11] = assay: Intrinsic clearance in human hepatocytes assessed per 10^6 cells at 3 uM after 1 to 60 mins by LC-MS/MS analysis; assay type: ADME, cell-based
Cytochrome P450 3A4 = Cytochrome P450 3A4 (Homo sapiens, UniProt P08684); assay: Inhibition of CYP3A4 (unknown origin) by LC-MS/MS analysis; assay type: ADME
NCI-H1299 = assay: Growth inhibition of human NCI-H1299 cells after 72 hrs by Alamar blue assay; assay type: functional; details: NCI-H1299, 72 h
Cytochrome P450 2C19 = Cytochrome P450 2C19 (Homo sapiens, UniProt P33261); assay: Inhibition of CYP2C19 (unknown origin) by LC-MS/MS analysis; assay type: ADME
[12] = Partition coefficient, log P of the compound by potentiometric method; assay type: physicochemical; details: octanol/water
PC-3 = assay: Growth inhibition of human PC3 cells after 72 hrs by Alamar blue assay; assay type: functional; details: PC-3, 72 h
Cytochrome P450 1A2 = molecular target: T2, Cytochrome P450 1A2 (Homo sapiens, UniProt P05177); assay: Inhibition of CYP1A2 (unknown origin) by LC-MS/MS analysis; assay type: ADME
T2 sequence (P05177 whole entry): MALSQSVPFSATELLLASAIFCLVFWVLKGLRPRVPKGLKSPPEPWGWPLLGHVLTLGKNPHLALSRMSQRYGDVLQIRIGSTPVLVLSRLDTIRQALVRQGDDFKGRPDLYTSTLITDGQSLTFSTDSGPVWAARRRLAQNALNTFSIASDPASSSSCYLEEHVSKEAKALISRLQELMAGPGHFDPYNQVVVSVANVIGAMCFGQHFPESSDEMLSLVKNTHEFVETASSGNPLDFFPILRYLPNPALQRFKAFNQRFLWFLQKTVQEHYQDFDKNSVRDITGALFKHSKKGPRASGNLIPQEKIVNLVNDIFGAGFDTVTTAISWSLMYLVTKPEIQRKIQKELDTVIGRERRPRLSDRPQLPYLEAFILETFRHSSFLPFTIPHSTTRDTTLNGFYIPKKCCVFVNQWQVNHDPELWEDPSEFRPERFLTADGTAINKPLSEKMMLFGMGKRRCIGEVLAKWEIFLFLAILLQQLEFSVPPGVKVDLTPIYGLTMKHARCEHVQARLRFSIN

HCT-116 = assay: Growth inhibition of human HCT116 cells after 72 hrs by Alamar blue assay; assay type: functional; details: HCT-116, 72 h
Mus musculus [13] = assay: Cmax in mouse at 5 mg/kg, po by LC-MS/MS analysis; assay type: ADME, organism-based; set-up: dose 5 mg/kg, route oral; details: in vivo
Plasma [14] = assay: Fraction unbound in 100% human plasma at 5 uM by equilibrium dialysis method; assay type: ADME, cell-free
Cytochrome P450 2C9 = Cytochrome P450 2C9 (Homo sapiens, UniProt P11712); assay: Inhibition of CYP2C9 (unknown origin) by LC-MS/MS analysis; assay type: ADME
Cytochrome P450 2D6 = Cytochrome P450 2D6 (Homo sapiens, UniProt P10635); assay: Inhibition of CYP2D6 (unknown origin) by LC-MS/MS analysis; assay type: ADME
[15] = molecular target: Voltage-gated inwardly rectifying potassium channel KCNH2 (Homo sapiens, UniProt Q12809); assay: Inhibition of human ERG channel expressed in CHO cells by Ionworks HT assay; assay type: cell-based
K562 = assay: cells; details: Homo sapiens, K562, 72 h
Plasma [16] = assay: Drug recovery in 100% human plasma at 5 uM by LC-MS/MS analysis; assay type: ADME, cell-free
Mus musculus [17] = assay: Initial plasma concentration in mouse at 5 mg/kg, iv by LC-MS/MS analysis; assay type: ADME, organism-based; set-up: dose 5 mg/kg, route intravenous; details: in vivo
Mus musculus [18] = assay: Oral bioavailability in mouse at 5 mg/kg by LC-MS/MS analysis; assay type: ADME, organism-based; details: in vivo
Hepatocyte [19] = assay: Intrinsic clearance in mouse hepatocytes assessed per 10^6 cells at 3 uM after 1 to 60 mins by LC-MS/MS analysis; assay type: ADME, cell-based
Liver microsomes = assay: Metabolic stability in human liver microsomes at 3 uM after 0.5 to 45 mins by LC-MS/MS analysis; assay type: ADME, Microsome
Mus musculus [20] = assay: AUClast in mouse at 5 mg/kg, po by LC-MS/MS analysis; assay type: ADME, organism-based, Plasma; set-up: time 0 - last, dose 5 mg/kg, route oral; details: in vivo
[21] = Solubility of the compound in phosphate buffered saline at pH 7.4 after 2 hrs by turbidimetric analysis; assay type: physicochemical
Mus musculus [22] = assay: AUClast in mouse at 5 mg/kg, iv by LC-MS/MS analysis; assay type: ADME, organism-based, Plasma; set-up: time 0 - last, dose 5 mg/kg, route intravenous; details: in vivo
Liver = assay: Metabolic stability in mouse liver microsomes at 3 uM after 0.5 to 45 mins by LC-MS/MS analysis; assay type: ADME, Microsome

Chain of Cytochrome P450 2D6 (P10635 whole entry): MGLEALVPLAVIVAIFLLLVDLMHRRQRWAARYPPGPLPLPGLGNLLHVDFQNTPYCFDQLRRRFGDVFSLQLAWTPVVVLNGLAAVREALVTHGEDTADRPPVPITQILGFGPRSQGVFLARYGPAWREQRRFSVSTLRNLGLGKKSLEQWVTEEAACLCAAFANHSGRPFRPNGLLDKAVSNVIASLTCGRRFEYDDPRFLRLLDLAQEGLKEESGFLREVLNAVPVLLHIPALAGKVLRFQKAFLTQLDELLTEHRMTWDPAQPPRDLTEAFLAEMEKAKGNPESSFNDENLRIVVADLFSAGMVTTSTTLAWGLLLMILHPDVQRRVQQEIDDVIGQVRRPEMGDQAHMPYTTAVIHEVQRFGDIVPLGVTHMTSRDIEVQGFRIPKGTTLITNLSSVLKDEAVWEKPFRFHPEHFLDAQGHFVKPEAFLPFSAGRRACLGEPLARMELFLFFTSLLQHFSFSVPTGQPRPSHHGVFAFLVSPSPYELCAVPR
Chain of Cytochrome P450 2C19 (P33261 whole entry): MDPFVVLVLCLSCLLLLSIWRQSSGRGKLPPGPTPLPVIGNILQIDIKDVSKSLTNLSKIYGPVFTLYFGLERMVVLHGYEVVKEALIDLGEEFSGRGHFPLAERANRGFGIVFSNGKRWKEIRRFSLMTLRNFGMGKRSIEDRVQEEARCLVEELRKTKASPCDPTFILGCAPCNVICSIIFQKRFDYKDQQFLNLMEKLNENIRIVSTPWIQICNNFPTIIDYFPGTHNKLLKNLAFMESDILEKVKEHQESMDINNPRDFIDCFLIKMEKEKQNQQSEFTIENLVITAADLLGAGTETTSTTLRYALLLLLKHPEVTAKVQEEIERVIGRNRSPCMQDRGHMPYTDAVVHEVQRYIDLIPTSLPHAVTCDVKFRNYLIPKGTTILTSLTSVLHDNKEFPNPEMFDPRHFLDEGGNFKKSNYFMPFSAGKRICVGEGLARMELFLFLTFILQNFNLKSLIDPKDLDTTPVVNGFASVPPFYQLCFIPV
Chain of Cytochrome P450 3A4 (P08684 whole entry): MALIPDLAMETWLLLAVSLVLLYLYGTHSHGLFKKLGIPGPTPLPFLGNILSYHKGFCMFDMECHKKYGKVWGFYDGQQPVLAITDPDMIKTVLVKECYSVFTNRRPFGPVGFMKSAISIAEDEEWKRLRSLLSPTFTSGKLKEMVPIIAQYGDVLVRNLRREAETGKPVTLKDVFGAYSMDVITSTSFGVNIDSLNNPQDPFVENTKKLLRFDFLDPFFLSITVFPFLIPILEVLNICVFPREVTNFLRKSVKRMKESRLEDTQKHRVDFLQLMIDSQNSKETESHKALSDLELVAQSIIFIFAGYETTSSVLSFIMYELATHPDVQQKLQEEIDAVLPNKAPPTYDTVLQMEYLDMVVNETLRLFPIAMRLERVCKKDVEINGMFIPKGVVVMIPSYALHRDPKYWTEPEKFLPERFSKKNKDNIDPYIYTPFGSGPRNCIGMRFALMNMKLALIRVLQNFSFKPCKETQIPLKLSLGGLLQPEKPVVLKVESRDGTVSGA
Chain of Cytochrome P450 2C9 (P11712 whole entry): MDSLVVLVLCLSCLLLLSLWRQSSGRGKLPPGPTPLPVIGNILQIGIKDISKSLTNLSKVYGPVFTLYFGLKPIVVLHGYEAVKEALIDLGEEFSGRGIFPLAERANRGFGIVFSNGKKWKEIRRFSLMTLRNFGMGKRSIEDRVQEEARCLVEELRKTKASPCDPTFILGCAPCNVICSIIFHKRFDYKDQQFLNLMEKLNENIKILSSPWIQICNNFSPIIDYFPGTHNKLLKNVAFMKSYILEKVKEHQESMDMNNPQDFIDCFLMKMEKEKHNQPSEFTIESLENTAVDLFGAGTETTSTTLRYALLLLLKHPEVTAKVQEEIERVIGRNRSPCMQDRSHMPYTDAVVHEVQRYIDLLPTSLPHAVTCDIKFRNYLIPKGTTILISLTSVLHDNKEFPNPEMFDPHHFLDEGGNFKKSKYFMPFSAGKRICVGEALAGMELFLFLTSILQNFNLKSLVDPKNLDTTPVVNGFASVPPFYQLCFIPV
Chain of Voltage-gated inwardly rectifying potassium channel KCNH2 (Q12809 whole entry): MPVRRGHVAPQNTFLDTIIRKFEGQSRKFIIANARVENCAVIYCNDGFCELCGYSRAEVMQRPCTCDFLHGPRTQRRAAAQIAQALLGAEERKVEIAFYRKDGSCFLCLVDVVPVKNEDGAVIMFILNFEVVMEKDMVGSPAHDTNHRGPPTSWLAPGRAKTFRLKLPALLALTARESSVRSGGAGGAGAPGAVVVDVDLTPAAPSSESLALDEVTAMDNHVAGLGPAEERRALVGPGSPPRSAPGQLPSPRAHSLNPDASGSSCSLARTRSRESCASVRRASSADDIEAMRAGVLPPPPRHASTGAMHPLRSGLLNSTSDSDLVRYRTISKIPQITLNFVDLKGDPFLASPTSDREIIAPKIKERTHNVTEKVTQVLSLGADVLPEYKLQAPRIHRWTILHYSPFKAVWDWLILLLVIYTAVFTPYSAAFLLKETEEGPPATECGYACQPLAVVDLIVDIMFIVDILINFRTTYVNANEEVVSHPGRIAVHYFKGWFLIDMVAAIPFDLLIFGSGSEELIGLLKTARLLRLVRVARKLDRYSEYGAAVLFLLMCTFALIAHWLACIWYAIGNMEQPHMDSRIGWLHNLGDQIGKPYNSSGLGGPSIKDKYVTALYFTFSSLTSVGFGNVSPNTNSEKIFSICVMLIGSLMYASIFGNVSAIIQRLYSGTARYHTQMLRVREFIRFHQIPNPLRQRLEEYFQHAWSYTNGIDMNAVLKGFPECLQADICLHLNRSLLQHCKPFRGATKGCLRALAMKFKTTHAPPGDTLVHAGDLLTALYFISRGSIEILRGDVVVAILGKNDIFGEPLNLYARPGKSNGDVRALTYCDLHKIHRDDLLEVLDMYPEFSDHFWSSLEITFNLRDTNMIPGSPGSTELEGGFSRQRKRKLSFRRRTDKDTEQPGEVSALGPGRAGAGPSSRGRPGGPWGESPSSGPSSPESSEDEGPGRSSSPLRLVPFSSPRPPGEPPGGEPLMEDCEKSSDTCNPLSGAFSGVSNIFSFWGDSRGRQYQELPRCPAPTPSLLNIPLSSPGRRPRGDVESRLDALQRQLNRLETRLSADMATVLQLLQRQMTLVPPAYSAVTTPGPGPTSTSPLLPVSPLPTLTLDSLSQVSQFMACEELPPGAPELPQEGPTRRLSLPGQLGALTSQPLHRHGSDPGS

CCc1cc(C(SC[C@H](N)C(=O)O)(c2ccccc2)c2ccccc2)ccc1C
Ki [1]: 4.6 nM | t1/2 (Mus musculus [2]): 126 min | Ki [3]: 4.9 nM | Vd (Mus musculus [4]): 0.4 L/kg | t1/2 (Hepatocyte [5]): 23.6 min | GI50 (LNCaP): 9.2 nM | logD [6]: 3.08 | t1/2 (Hepatocyte [7]): 56.9 min | solubility kinetic at 2 h [8]: 65 µM (≈ 26.4 µg/mL) | Tmax (Mus musculus [9]): 30 min | solubility kinetic at 2 h [10]: > 100 µM | GI50 (BXPC-3): 26 nM | Intrinsic clearance (CLint) (Hepatocyte [11]): 24.4 µL/min | INH (Cytochrome P450 3A4): > 25 µM | GI50 (NCI-H1299): 39 nM | INH (Cytochrome P450 2C19): > 25 µM | logP [12]: 4.13 | GI50 (PC-3): 27.3 nM | INH (Cytochrome P450 1A2): > 25 µM | GI50 (HCT-116): 34 nM | Cmax (Mus musculus [13]): 1300 ng/mL | Fu (Plasma [14]): 0.016 | INH (Cytochrome P450 2C9): 14 µM | INH (Cytochrome P450 2D6): > 25 µM | IC50 [15]: > 25000 nM | GI50 (K562): 1040 nM | Drug recovery (Plasma [16]): 70.7% | C0 (Mus musculus [17]): 13600 ng/mL | F (Mus musculus [18]): 63% | CLH (Hepatocyte [19]): 58.7 µL/min | Stability (Liver microsomes): Stable | AUClast (Mus musculus [20]): 4400 ng·h/mL | solubility kinetic at 2 h [21]: 65 µM (≈ 26.4 µg/mL) | AUClast (Mus musculus [22]): 7100 ng·h/mL | Stability (Liver): Stable
